Measured values: patent publication US10899714B2, “6-aminoisoquinoline compounds” (Aerie Pharmaceuticals, Inc., priority 2007, dated 2021)
Where a name gives a salt, the structure may show the parent alone.

Tests used:
Assay type in all cases: in vivo
[1] = tested on: patient suffering from glaucoma; experiment: Topical ocular composition (Example 212) lowering intraocular pressure; settings: 0.50 wt % topical composition
Description: Examples of such assays are described in the following reference, incorporated herein by reference: C. Liljebris, G. Selen. B. Resul, J. Sternschantz, and U. Hacksell, “Derivatives of 17-Phenyl-18, 19, 20-trinorprostaglandin F2α Isopropyl Ester: Potential Anti-glaucoma Agents”, Journal of Medicinal Chemistry, Vol. 38 (2) 1995, pp. 289-304.
Topical pharmaceutical compositions for lowering intraocular pressure are prepared by conventional methods and formulated as follows: […]
A compound according to this invention is used as the 6-aminoisoquinoline derivative. […]

[2] = Topical ocular composition (Example 212), allergic symptoms; settings: 0.50 wt % topical composition
[3] = Topical ocular composition (Example 212), dry eye syndrome; settings: 0.50 wt % topical composition, drop twice per day
[4] = Topical ocular composition (Example 212), neuroprotective effect; settings: 0.50 wt % topical composition, drop 4 times per day
[5] = Topical ocular composition (Example 212), hyperemia, redness and ocular irritation; settings: 0.50 wt % topical composition, drop as needed

O=C(CNCc1ccccc1)Nc1ccc2cnccc2c1 [Example E58, 2-(benzylamino)-N-(isoquinolin-6-yl)acetamide]
intraocular pressure ([1]; drop twice per day): substantially decreases intraocular pressure

CNC(=O)c1cccc(NCS(=O)(=O)Nc2ccc3cnccc3c2)c1 [Example E136, 3-((N-isoquinolin-6-ylsulfamoyl)methylamino)-N-methylbenzamide]
intraocular pressure ([1]; drop twice per day): substantially decreases intraocular pressure

O=C(CCl)Nc1ccc2cnccc2c1 [Example E1, 2-chloro-N-(isoquinolin-6-yl) acetamide]
allergic symptoms ([2]; drop twice per day): substantially decreases allergic symptoms | dry eye syndrome [3]: relieves dry eye syndrome

O=C(Nc1ccncc1)c1ccc(C2CC2C(=O)Nc2ccc3cnccc3c2)cc1 (stereo not shown) [Example E118, 4-(2-(isoquinolin-6-ylcarbamoyl)cyclopropyl)-N-(pyridin-4-yl)benzamide]
intraocular pressure ([1]; drop twice a day or as needed): substantially decreases intraocular pressure

O=C(Nc1ccc2cnccc2c1)OCc1ccccc1 [Example E87, benzylisoquinolin-6-ylcarbamate]
allergic symptoms ([2]; drop twice per day): substantially decreases allergic symptoms | dry eye syndrome [3]: relieves dry eye syndrome

N[C@@H](CSCC(C(=O)c1ccc(/C=C/C(=O)Nc2ccc3cnccc3c2)cc1)c1ccccc1)C(=O)O (stereo partly drawn) [Example E207, (2R)-2-amino-3-(3-(4-((E)-3-(isoquinolin-6-ylamino)-3-oxoprop-1-enyl)phenyl)-3-oxo-2-phenylpropylthio)propanoic acid]
intraocular pressure ([1]; drop 4 times per day): substantially decreases intraocular pressure | neuroprotective agent [4]: serves as a neuroprotective agent

O=C(CN1CCOCC1)Nc1ccc2cnccc2c1 [Example E105, N-(isoquinolin-6-yl)-2-morpholinoacetamide]
hyperemia, redness and ocular irritation [5]: substantially decreases hyperemia, redness and ocular irritation

NCC(=O)Nc1ccc2cnccc2c1 [Example E40, 2-amino-N-isoquinoline-6-yl-acetamide dihydrochloride]
hyperemia, redness and ocular irritation [5]: substantially decreases hyperemia, redness and ocular irritation

O=C(NCc1ccccc1)Nc1ccc2cnccc2c1 [Example E88, 1-benzyl-3-(isoquinolin-6-yl)urea]
allergic symptoms ([2]; drop as needed): substantially decreases allergic symptoms

CNC(=O)c1cccc(NCC(=O)Nc2ccc3cnccc3c2Cl)c1 [Example E119b, 3-(2-(5-chloroisoquinolin-6-ylamino)-2-oxoethylamino)-N-methyl benzamide]
intraocular pressure ([1]; drop twice a day or as needed): substantially decreases intraocular pressure
